Test results taken from patent US20070010671A1, “Novel quinazoline derivatives and methods of treatment related to the use thereof” (priority 2003, published 2007).

target: MCH receptor (Homo sapiens, UniProt Q99705); assay: High throughput functional screening FLIPR/FDSS6000: inhibition of MCH-evoked intracellular Ca2+ changes; assay type: cell-based; conditions: class by percent of control at 10^-7 M or IC50
In short: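 Antagonism is measured as inhibition of the intracellular calcium rise triggered by 50 nM MCH in cells bearing a constitutively active, non-endogenous form of the receptor. Cells are dye-loaded with Fluo4-AM and exposed to compound for 3 min at 37° C before agonist addition.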

SMILES	class
CN(C)c1nc(N[C@H]2CC[C@@H](NC(=S)Nc3ccc(Cl)c(C(F)(F)F)c3)CC2)nc2ccccc12 [compound 235]	3 (Class 3: The value of percent of control at 10^−7 M was more than 60% or the value of IC50 was more than 200 nM.)
CN(C)c1nc(N[C@H]2CC[C@@H](NC(=S)Nc3ccc(F)c(C(F)(F)F)c3)CC2)nc2ccccc12 [compound 236]	3 (Class 3: The value of percent of control at 10^−7 M was more than 60% or the value of IC50 was more than 200 nM.)
CN(C)c1nc(N[C@H]2CC[C@@H](NC(=S)Nc3ccc(I)cc3)CC2)nc2ccccc12 [compound 237]	1 (Class 1: The value of percent of control at 10^−7 M was less than 40% or the value of IC50 was less than 50 nM.)
Cc1ccc(Cl)cc1NC(=S)N[C@H]1CC[C@@H](Nc2nc(N(C)C)c3ccccc3n2)CC1 [compound 238]	2 (Class 2: The value of percent of control at 10^−7 M was from 40% to 60% or the value of IC50 was from 50 nM to 200 nM.)
CN(C)c1nc(N[C@H]2CC[C@@H](NC(=S)NC3C[C@@H]4CC[C@H]3C4)CC2)nc2ccccc12 (some centres unmarked) [compound 239]	2 (Class 2: The value of percent of control at 10^−7 M was from 40% to 60% or the value of IC50 was from 50 nM to 200 nM.)
CN(C)c1nc(N[C@H]2CC[C@@H](NC(=S)Nc3ccc(NC(=O)OC(C)(C)C)cc3)CC2)nc2ccccc12 [compound 240]	3 (Class 3: The value of percent of control at 10^−7 M was more than 60% or the value of IC50 was more than 200 nM.)
COc1ccc(CCNC(=S)N[C@H]2CC[C@@H](Nc3nc(N(C)C)c4ccccc4n3)CC2)cc1OC [compound 241]	3 (Class 3: The value of percent of control at 10^−7 M was more than 60% or the value of IC50 was more than 200 nM.)
CN(C)c1nc(N[C@H]2CC[C@@H](NC(=S)NCCc3ccc(Cl)cc3)CC2)nc2ccccc12 [compound 242]	2 (Class 2: The value of percent of control at 10^−7 M was from 40% to 60% or the value of IC50 was from 50 nM to 200 nM.)
CN(C)c1nc(N[C@H]2CC[C@@H](NC(=S)Nc3cc(Cl)c(Cl)c(Cl)c3Cl)CC2)nc2ccccc12 [compound 243]	3 (Class 3: The value of percent of control at 10^−7 M was more than 60% or the value of IC50 was more than 200 nM.)
CN(C)c1nc(N[C@H]2CC[C@@H](NC(=S)Nc3cc(Cl)c(Cl)cc3Cl)CC2)nc2ccccc12 [compound 244]	3 (Class 3: The value of percent of control at 10^−7 M was more than 60% or the value of IC50 was more than 200 nM.)
CN(C)c1nc(N[C@H]2CC[C@@H](NC(=S)Nc3c(Cl)cc(Cl)cc3Cl)CC2)nc2ccccc12 [compound 246, N-(cis-4-{[4-(dimethylamino)quinazolin-2-yl]amino}cyclohexyl)-N′-(2,4,6-trichlorophenyl)thiourea]	1 (Class 1: The value of percent of control at 10^−7 M was less than 40% or the value of IC50 was less than 50 nM.)
CN(C)c1nc(N[C@H]2CC[C@@H](NC(=S)Nc3c(F)cc(F)cc3F)CC2)nc2ccccc12 [compound 247]	3 (Class 3: The value of percent of control at 10^−7 M was more than 60% or the value of IC50 was more than 200 nM.)
Cc1cc(C)c(NC(=S)N[C@H]2CC[C@@H](Nc3nc(N(C)C)c4ccccc4n3)CC2)c(C)c1 [compound 248, N-(cis-4-{[4-(dimethylamino)quinazolin-2-yl]amino}cyclohexyl)-N′-mesitylthiourea]	1 (Class 1: The value of percent of control at 10^−7 M was less than 40% or the value of IC50 was less than 50 nM.)
Cc1ccc(NC(=S)N[C@H]2CC[C@@H](Nc3nc(N(C)C)c4ccccc4n3)CC2)c(C)c1 [compound 249, N-(cis-4-{[4-(dimethylamino)quinazolin-2-yl]amino}cyclohexyl)-N′-(2,4-dimethylphenyl)thiourea]	1 (Class 1: The value of percent of control at 10^−7 M was less than 40% or the value of IC50 was less than 50 nM.)
CCc1cccc(CC)c1NC(=S)N[C@H]1CC[C@@H](Nc2nc(N(C)C)c3ccccc3n2)CC1 [compound 250, N-(2,6-diethylphenyl)-N′-(cis-4-{[4-(dimethylamino)quinazolin-2-yl]amino}cyclohexyl)thiourea]	1 (Class 1: The value of percent of control at 10^−7 M was less than 40% or the value of IC50 was less than 50 nM.)
CC(C)c1cccc(C(C)C)c1NC(=S)N[C@H]1CC[C@@H](Nc2nc(N(C)C)c3ccccc3n2)CC1 [compound 251]	2 (Class 2: The value of percent of control at 10^−7 M was from 40% to 60% or the value of IC50 was from 50 nM to 200 nM.)
Cc1ccc(NC(=S)N[C@H]2CC[C@@H](Nc3nc(N(C)C)c4ccccc4n3)CC2)c(Br)c1 [compound 252]	1 (Class 1: The value of percent of control at 10^−7 M was less than 40% or the value of IC50 was less than 50 nM.)
CN(C)c1nc(N[C@H]2CC[C@@H](NC(=S)Nc3cc(C(F)(F)F)ccc3Cl)CC2)nc2ccccc12 [compound 253]	3 (Class 3: The value of percent of control at 10^−7 M was more than 60% or the value of IC50 was more than 200 nM.)

SMILES	class
CN(C)c1nc(N[C@H]2CC[C@@H](NC(=S)NCc3ccccc3Cl)CC2)nc2ccccc12 [compound 254, N-(2-chlorobenzyl)-N′-(cis-4-{[4-(dimethylamino)quinazolin-2-yl]amino}cyclohexyl)thiourea]	1 (Class 1: The value of percent of control at 10^−7 M was less than 40% or the value of IC50 was less than 50 nM.)
CCc1cccc(C)c1NC(=S)N[C@H]1CC[C@@H](Nc2nc(N(C)C)c3ccccc3n2)CC1 [compound 255, N-(cis-4-{[4-(dimethylamino)quinazolin-2-yl]amino}cyclohexyl)-N′-(2-ethyl-6-methylphenyl)thiourea]	1 (Class 1: The value of percent of control at 10^−7 M was less than 40% or the value of IC50 was less than 50 nM.)
CC(C)c1ccccc1NC(=S)N[C@H]1CC[C@@H](Nc2nc(N(C)C)c3ccccc3n2)CC1 [compound 256, N-(cis-4-{[4-(dimethylamino)quinazolin-2-yl]amino}cyclohexyl)-N′-(2-isopropylphenyl)thiourea]	1 (Class 1: The value of percent of control at 10^−7 M was less than 40% or the value of IC50 was less than 50 nM.)
CSc1cccc(NC(=S)N[C@H]2CC[C@@H](Nc3nc(N(C)C)c4ccccc4n3)CC2)c1 [compound 257]	3 (Class 3: The value of percent of control at 10^−7 M was more than 60% or the value of IC50 was more than 200 nM.)
CN(C)c1nc(N[C@H]2CC[C@@H](NC(=S)NCc3ccc(Cl)c(Cl)c3)CC2)nc2ccccc12 [compound 258]	3 (Class 3: The value of percent of control at 10^−7 M was more than 60% or the value of IC50 was more than 200 nM.)
COc1cc(NC(=S)N[C@H]2CC[C@@H](Nc3nc(N(C)C)c4ccccc4n3)CC2)cc(OC)c1 [compound 259]	2 (Class 2: The value of percent of control at 10^−7 M was from 40% to 60% or the value of IC50 was from 50 nM to 200 nM.)
Cc1cc(C)cc(NC(=S)N[C@H]2CC[C@@H](Nc3nc(N(C)C)c4ccccc4n3)CC2)c1 [compound 260, N-(cis-4-{[4-(dimethylamino)quinazolin-2-yl]amino}cyclohexyl)-N′-(3,5-dimethylphenyl)thiourea]	2 (Class 2: The value of percent of control at 10^−7 M was from 40% to 60% or the value of IC50 was from 50 nM to 200 nM.)
CN(C)c1nc(N[C@H]2CC[C@@H](NC(=S)Nc3cccc(OCc4ccccc4)c3)CC2)nc2ccccc12 [compound 261]	3 (Class 3: The value of percent of control at 10^−7 M was more than 60% or the value of IC50 was more than 200 nM.)
Cc1ccc(NC(=S)N[C@H]2CC[C@@H](Nc3nc(N(C)C)c4ccccc4n3)CC2)cc1Cl [compound 262]	2 (Class 2: The value of percent of control at 10^−7 M was from 40% to 60% or the value of IC50 was from 50 nM to 200 nM.)
COC(=O)c1cccc(NC(=S)N[C@H]2CC[C@@H](Nc3nc(N(C)C)c4ccccc4n3)CC2)c1 [compound 263]	1 (Class 1: The value of percent of control at 10^−7 M was less than 40% or the value of IC50 was less than 50 nM.)
CN(C)c1nc(N[C@H]2CC[C@@H](NC(=S)NCCCc3ccccc3)CC2)nc2ccccc12 [compound 264]	3 (Class 3: The value of percent of control at 10^−7 M was more than 60% or the value of IC50 was more than 200 nM.)
CN(C)c1nc(N[C@H]2CC[C@@H](NC(=S)Nc3ccc(OCc4ccccc4)cc3)CC2)nc2ccccc12 [compound 265]	3 (Class 3: The value of percent of control at 10^−7 M was more than 60% or the value of IC50 was more than 200 nM.)
Cc1cc(Br)cc(C)c1NC(=S)N[C@H]1CC[C@@H](Nc2nc(N(C)C)c3ccccc3n2)CC1 [compound 266, N-(4-bromo-2,6-dimethylphenyl)-N′-(cis-4-{[4-(dimethylamino)quinazolin-2-yl]amino}cyclohexyl)thiourea]	1 (Class 1: The value of percent of control at 10^−7 M was less than 40% or the value of IC50 was less than 50 nM.)
Cc1cc(Br)ccc1NC(=S)N[C@H]1CC[C@@H](Nc2nc(N(C)C)c3ccccc3n2)CC1 [compound 267]	1 (Class 1: The value of percent of control at 10^−7 M was less than 40% or the value of IC50 was less than 50 nM.)
CN(C)c1nc(N[C@H]2CC[C@@H](NC(=S)Nc3ccc(Br)cc3C(F)(F)F)CC2)nc2ccccc12 [compound 268, N-[4-bromo-2-(trifluoromethyl)phenyl]-N′-(cis-4-{[4-(dimethylamino)quinazolin-2-yl]amino}cyclohexyl)thiourea]	1 (Class 1: The value of percent of control at 10^−7 M was less than 40% or the value of IC50 was less than 50 nM.)
Cc1cc(Cl)ccc1NC(=S)N[C@H]1CC[C@@H](Nc2nc(N(C)C)c3ccccc3n2)CC1 [compound 269]	1 (Class 1: The value of percent of control at 10^−7 M was less than 40% or the value of IC50 was less than 50 nM.)
CN(C)c1nc(N[C@H]2CC[C@@H](NC(=S)Nc3ccc(Cl)c([N+](=O)[O-])c3)CC2)nc2ccccc12 [compound 270]	3 (Class 3: The value of percent of control at 10^−7 M was more than 60% or the value of IC50 was more than 200 nM.)
